Results reported in patent US6737383B1, “Herbicidal oxadiazolidines” (priority 1999, dated 2004).

Key:
sugar beet = assay: Test B pre/postemergence sugar beet; type: in vivo, Beta vulgaris
Method in brief: (§1)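 Test chemicals in a non-phytotoxic solvent mixture with surfactant were sprayed preemergence onto planted seeds and postemergence onto plants 2 to 18 cm tall (1- to 4-leaf stage). After twelve to sixteen days in a greenhouse, injury was visually rated against untreated controls from 0 (no effect) to 10 (complete control).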

corn = assay: Test B pre/postemergence corn; type: in vivo, Zea mays
Method in brief: as §1

cocklebur = assay: Test B pre/postemergence cocklebur; type: in vivo, Xanthium strumarium
Method in brief: as §1

giant foxtail = assay: Test B pre/postemergence giant foxtail; type: in vivo, Setaria faberii
Method in brief: as §1

pigweed = assay: Test B pre/postemergence pigweed; type: in vivo, Amaranthus retroflexus
Method in brief: as §1

smallflower flatsedge = assay: Test B flood test smallflower flatsedge; type: in vivo, Cyperus difformis
Method in brief: (§2)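 Flood test on plants grown to the 2-leaf stage; treated plants kept in greenhouse twelve to sixteen days, then visually rated against controls on a 0 (no effect) to 10 (complete control) scale.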

purple nutsedge = assay: Test B pre/postemergence purple nutsedge; type: in vivo, Cyperus rotundus; conditions: Postemergence
Method in brief: as §1

blackgrass = assay: Test B pre/postemergence blackgrass; type: in vivo, Alopecurus myosuroides
Method in brief: as §1

duck salad = assay: Test B flood test duck salad; type: in vivo, Heteranthera limosa
Method in brief: as §2

bedstraw = assay: Test B pre/postemergence bedstraw; type: in vivo, Galium aparine
Method in brief: as §1

crabgrass = assay: Test B pre/postemergence crabgrass; type: in vivo, Digitaria sanguinalis
Method in brief: as §1

morningglory = assay: Test B pre/postemergence morningglory; type: in vivo, Ipomoea hederacea
Method in brief: as §1

rice = assay: Test B flood test rice; type: in vivo, Oryza sativa
Method in brief: as §2

surinam grass = assay: Test B pre/postemergence surinam grass; type: in vivo, Brachiaria decumbens
Method in brief: as §1

wild oat = assay: Test B pre/postemergence wild oat; type: in vivo, Avena fatua
Method in brief: as §1

soybean = assay: Test B pre/postemergence soybean; type: in vivo, Glycine max
Method in brief: as §1

[1] = Postemergence, Rate 250 g/ha, scale 0 to 10, 0 no effect, 10 complete control
[2] = Postemergence, Rate 1000 g/ha, scale 0 to 10 (0 no effect, 10 complete control)
[3] = Preemergence, Rate 125 g/ha, scale 0 to 10 (0 no effect, 10 complete control)
[4] = Preemergence, Rate 250 g/ha, scale of 0 to 10 where 0 is no effect and 10 is complete control
[5] = Preemergence, Rate 500 g/ha, scale 0 (no effect) to 10 (complete control)
[6] = Rate 125 g/ha, Postemergence, scale 0 to 10, 0 no effect, 10 complete control
[7] = Rate 1000 g/ha, Preemergence, scale 0 to 10 (0 no effect, 10 complete control)
[8] = Rate 500 g/ha, Postemergence, 0 to 10 scale (0 no effect, 10 complete control)
[9] = Rate 125 g/ha, Postemergence section (flood test species), scale 0 to 10, 0 no effect, 10 complete control
[10] = flood test, listed under Postemergence, Rate 250 g/ha, scale 0 to 10, 0 no effect, 10 complete control
[11] = Rate 500 g/ha, Postemergence section of Table B, 0 to 10 scale (0 no effect, 10 complete control)

## CCN(CC)C(=O)n1oc(=O)n(-c2c(C)cccc2C)c1=O [Compound 2]
Sugar beet; [1]
  Sugarbeets plant response rating: 0
Sugar beet; [2]
  Sugarbeets plant response rating: 0
Sugar beet; [3]
  Plant response rating, Sugarbeets: 0
Sugar beet; [4]
  Plant response rating, Sugarbeets: 0
Sugar beet; [5]
  Sugarbeets plant response rating: 0
Sugar beet; [6]
  Sugarbeets plant response rating: 0
Sugar beet; [7]
  Plant response rating, Sugarbeets: 0
corn; [1]
  Corn plant response rating: 3
corn; [2]
  Corn plant response rating: 8
corn; [3]
  Plant response rating, Corn: 4
corn; [4]
  Plant response rating, Corn: 6
corn; [5]
  Corn plant response rating: 7
corn; [6]
  Corn plant response rating: 0
corn; [8]
  Corn plant response rating: 6
corn; [7]
  Plant response rating, Corn: 8
cocklebur; [1]
  Cocklebur plant response rating: 0
cocklebur; [2]
  Cocklebur plant response rating: 0
cocklebur; [3]
  Plant response rating, Cocklebur: 0
cocklebur; [4]
  Plant response rating, Cocklebur: 0
cocklebur; [5]
  Cocklebur plant response rating: 0
cocklebur; [6]
  Cocklebur plant response rating: 0
cocklebur; [8]
  Cocklebur plant response rating: 0
Giant foxtail; [1]
  Giant foxtail plant response rating: 7
Giant foxtail; [2]
  Giant foxtail plant response rating: 8
Giant foxtail; [3]
  Plant response rating, Giant foxtail: 6
Giant foxtail; [4]
  Plant response rating, Giant foxtail: 7
Giant foxtail; [5]
  Giant foxtail plant response rating: 7
Giant foxtail; [6]
  Giant foxtail plant response rating: 0
Giant foxtail; [8]
  Giant foxtail plant response rating: 7
Giant foxtail; [7]
  Plant response rating, Giant foxtail: 10
pigweed; [1]
  Redroot pigweed plant response rating: 0
pigweed; [2]
  Redroot pigweed plant response rating: 0
pigweed; [3]
  Plant response rating, Redroot pigweed: 0
pigweed; [4]
  Plant response rating, Redroot pigweed: 0
pigweed; [5]
  Redroot pigweed plant response rating: 0
pigweed; [6]
  Redroot pigweed plant response rating: 0
pigweed; [8]
  Redroot pigweed plant response rating: 0
pigweed; [7]
  Plant response rating, Redroot pigweed: 0
Smallflower flatsedge; [2]
  S. Flatsedge plant response rating: 0
Smallflower flatsedge; [9]
  S. Flatsedge plant response rating: 0
Smallflower flatsedge; [10]
  S. Flatsedge plant response rating: 0
Purple nutsedge; Rate 250 g/ha, scale 0 to 10, 0 no effect, 10 complete control
  Nutsedge plant response rating: 0
Purple nutsedge; Rate 1000 g/ha, scale 0 to 10 (0 no effect, 10 complete control)
  Nutsedge plant response rating: 0
Purple nutsedge; Rate 125 g/ha, scale 0 to 10, 0 no effect, 10 complete control
  Nutsedge plant response rating: 0
Purple nutsedge; Rate 500 g/ha, 0 to 10 scale (0 no effect, 10 complete control)
  Nutsedge plant response rating: 0
blackgrass; [1]
  Blackgrass plant response rating: 4
blackgrass; [2]
  Blackgrass plant response rating: 9
blackgrass; [3]
  Plant response rating, Blackgrass: 0
blackgrass; [4]
  Plant response rating, Blackgrass: 0
blackgrass; [5]
  Blackgrass plant response rating: 0
blackgrass; [6]
  Blackgrass plant response rating: 0
blackgrass; [8]
  Blackgrass plant response rating: 8
blackgrass; [7]
  Plant response rating, Blackgrass: 7
Duck salad; [2]
  Ducksalad plant response rating: 0
Duck salad; [9]
  Ducksalad plant response rating: 0
Duck salad; [11]
  Ducksalad plant response rating: 0
Duck salad; [10]
  Ducksalad plant response rating: 0
bedstraw; [1]
  Bedstraw plant response rating: 0
bedstraw; [2]
  Bedstraw plant response rating: 0
bedstraw; [3]
  Plant response rating, Bedstraw: 0
bedstraw; [4]
  Plant response rating, Bedstraw: 0
bedstraw; [5]
  Bedstraw plant response rating: 0
bedstraw; [6]
  Bedstraw plant response rating: 0
bedstraw; [8]
  Bedstraw plant response rating: 0
bedstraw; [7]
  Plant response rating, Bedstraw: 0
crabgrass; [1]
  Crabgrass plant response rating: 0
crabgrass; [2]
  Crabgrass plant response rating: 4
crabgrass; [3]
  Plant response rating, Crabgrass: 0
crabgrass; [4]
  Plant response rating, Crabgrass: 0
crabgrass; [5]
  Crabgrass plant response rating: 0
crabgrass; [6]
  Crabgrass plant response rating: 0
crabgrass; [8]
  Crabgrass plant response rating: 0
crabgrass; [7]
  Plant response rating, Crabgrass: 6
morningglory; [1]
  Morningglory plant response rating: 0
morningglory; [2]
  Morningglory plant response rating: 5
morningglory; [3]
  Plant response rating, Morningglory: 0
morningglory; [4]
  Plant response rating, Morningglory: 0
morningglory; [5]
  Morningglory plant response rating: 0
morningglory; [6]
  Morningglory plant response rating: 0
morningglory; [8]
  Morningglory plant response rating: 0
morningglory; [7]
  Plant response rating, Morningglory: 0
rice; [2]
  Rice plant response rating: 0
rice; [9]
  Rice plant response rating: 0
rice; [11]
  Rice plant response rating: 0
rice; [10]
  Rice plant response rating: 0
Surinam grass; [1]
  B. signalgrass plant response rating: 0
Surinam grass; [2]
  B. signalgrass plant response rating: 2
Surinam grass; [3]
  Plant response rating, B. signalgrass: 0
Surinam grass; [4]
  Plant response rating, B. signalgrass: 0
Surinam grass; [5]
  B. signalgrass plant response rating: 0
Surinam grass; [6]
  B. signalgrass plant response rating: 0
Surinam grass; [8]
  B. signalgrass plant response rating: 0
Surinam grass; [7]
  Plant response rating, B. signalgrass: 6
Wild oat; [1]
  Wild oats plant response rating: 0
Wild oat; [2]
  Wild oats plant response rating: 0
Wild oat; [3]
  Plant response rating, Wild oats: 0
Wild oat; [4]
  Plant response rating, Wild oats: 0
Wild oat; [5]
  Wild oats plant response rating: 0
Wild oat; [6]
  Wild oats plant response rating: 0
Wild oat; [7]
  Plant response rating, Wild oats: 4
soybean; [1]
  Soybean plant response rating: 1
soybean; [2]
  Soybean plant response rating: 4
soybean; [3]
  Plant response rating, Soybean: 0
soybean; [4]
  Plant response rating, Soybean: 0
soybean; [5]
  Soybean plant response rating: 0
soybean; [6]
  Soybean plant response rating: 0
soybean; [7]
  Plant response rating, Soybean: 3
